Some test systems named below: 786-0 renal; ACHN renal; DU-145 prostate; HOP-62 NSCLC; HOP-92 NSCLC; HT29 colon; K-562 leukemia; M14 melanoma; OVCAR-5 ovarian; RXF 393 renal.
Assay in all cases: NCI anticancer screen, dose series, 48 h

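1) Cells in 96-well plates. 2) Compound, 48 h, 5 concentrations. 3) Linear interpolation between surrounding doses. 4) Unreached endpoint = highest concentration. TGI marks complete inhibition of growth.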

In the case of `COc1ccc(CCCC(=O)O)c(C)c1`, the TGI in the assay on 786-0 renal was above 100 µM; in the assay with ACHN renal, above 100 µM; in the assay with DU-145 prostate, 56.6 µM; in the assay on HOP-62 NSCLC, 75 µM; with HOP-92 NSCLC, 90.8 µM; in the assay with HT29 colon, above 100 µM. For the same molecule, the TGI in the assay with K-562 leukemia, with M14 melanoma, with OVCAR-5 ovarian and in the assay with RXF 393 renal was above 100 µM in each case.

With `Cc1ccc(O)c(-c2csc(NCN3CCN(CNc4nc(-c5cc(C)ccc5O)cs4)CC3)n2)c1`, the TGI in the assay with 786-0 renal, in the assay with ACHN renal, with DU-145 prostate, in the assay with HOP-62 NSCLC, with HOP-92 NSCLC and in the assay on HT29 colon was above 100 µM in each case. For the same molecule, the TGI in the assay with K-562 leukemia, with M14 melanoma, in the assay with OVCAR-5 ovarian and in the assay on RXF 393 renal was above 100 µM in each case.

Take `CC(=N/NC(=S)N1CCCCC1)/C(C)=N\NC(=S)N1CCCCC1`: the TGI stood at 3.1 µM with 786-0 renal; 2.92 µM in the assay with ACHN renal; 3.05 µM in the assay on DU-145 prostate; 3.51 µM in the assay on HOP-62 NSCLC; 2.85 µM in the assay on HOP-92 NSCLC; 4.07 µM with HT29 colon. Besides, the TGI in the assay on K-562 leukemia was 6.89 µM; in the assay with M14 melanoma, 4.57 µM; with OVCAR-5 ovarian, 3.82 µM; in the assay on RXF 393 renal, 3.2 µM.

Turning to `N#CC(N=Nc1ccccc1)c1nc2ccccc2o1` (stereo not given), the TGI with 786-0 renal was 45.5 µM; in the assay with ACHN renal, 56.4 µM; with DU-145 prostate, 72.4 µM; in the assay with HOP-62 NSCLC it was 39 µM; in the assay with HOP-92 NSCLC, 46.7 µM; in the assay on HT29 colon it was above 100 µM. In addition, the TGI in the assay with K-562 leukemia is above 100 µM; in the assay on M14 melanoma, above 100 µM; with OVCAR-5 ovarian, above 100 µM; in the assay on RXF 393 renal, 61.4 µM.

In the case of `NCCCc1c(-c2ccccc2)nc(N)[nH]c1=O`, the TGI with 786-0 renal, in the assay on ACHN renal, in the assay on DU-145 prostate, in the assay on HOP-62 NSCLC, in the assay with HOP-92 NSCLC and in the assay on HT29 colon was above 100 µM each time. In addition, the TGI in the assay with K-562 leukemia, in the assay with M14 melanoma, with OVCAR-5 ovarian and in the assay with RXF 393 renal was above 100 µM each time.

Regarding `CCN(CC)CCSc1nc2c(c(=N)n1-c1ccccc1)c(=S)n(-c1ccccc1)c(=S)n2-c1ccccc1`, the TGI amounted to 1.55 µM in the assay on 786-0 renal; 3.16 µM in the assay on ACHN renal; 3.05 µM with DU-145 prostate; 8.32 µM in the assay with HOP-62 NSCLC; 2.88 µM in the assay with HOP-92 NSCLC; 3.37 µM with HT29 colon. Further, the TGI in the assay on K-562 leukemia is 2.5 µM; in the assay with M14 melanoma, 5 µM; with OVCAR-5 ovarian it was 29 µM; in the assay on RXF 393 renal it was 2.78 µM.

As for `COc1ccc(CCc2ccc(O)c(C(=O)O)c2)cc1OC`, the TGI with 786-0 renal, with ACHN renal, with DU-145 prostate, in the assay with HOP-62 NSCLC, in the assay on HOP-92 NSCLC and with HT29 colon was above 100 µM in each case. Further, the TGI with K-562 leukemia, with M14 melanoma, in the assay on OVCAR-5 ovarian and in the assay on RXF 393 renal was above 100 µM in each case.

With `CN(C)CCNC(=O)c1ccc(NCCCN(C)CCCNc2ccc(C(=O)NCCN(C)C)c3[nH]c4ccc([N+](=O)[O-])cc4c(=O)c23)c2c(=O)c3cc([N+](=O)[O-])ccc3[nH]c12`, the TGI in the assay with 786-0 renal was 1.14 µM; with ACHN renal, 1.5 µM; with DU-145 prostate it was 0.641 µM; with HOP-62 NSCLC it was 1.92 µM; with HOP-92 NSCLC it was 0.933 µM; with HT29 colon, 1.02 µM. In addition, the TGI with K-562 leukemia is 1.83 µM; in the assay with M14 melanoma, 2.09 µM; with OVCAR-5 ovarian, 1.71 µM; with RXF 393 renal, 0.351 µM.

On to `O=C(/C=C\Nc1ccccc1O)C(Cl)(Cl)Cl`, for which the TGI is 64.7 µM in the assay on 786-0 renal; above 100 µM in the assay on ACHN renal; above 100 µM in the assay on DU-145 prostate; 52.7 µM with HOP-62 NSCLC; above 100 µM with HOP-92 NSCLC; above 100 µM in the assay on HT29 colon. Moreover, the TGI in the assay on K-562 leukemia, with M14 melanoma, in the assay with OVCAR-5 ovarian and in the assay on RXF 393 renal was above 100 µM in each case.

For `CC1(C)C(=O)C2(OS(=O)(=O)C(F)(F)F)CCC1C2` (stereo not given), the TGI with 786-0 renal, in the assay on ACHN renal, in the assay with DU-145 prostate, in the assay with HOP-62 NSCLC, in the assay with HOP-92 NSCLC and in the assay with HT29 colon was above 100 µM in each case. Besides, the TGI in the assay on K-562 leukemia, with M14 melanoma, with OVCAR-5 ovarian and with RXF 393 renal was above 100 µM each time.

For the molecule `N=c1oc2ccc(Cl)cc2cc1C(=O)NCc1ccccc1`, the TGI in the assay with 786-0 renal, in the assay with ACHN renal, in the assay with DU-145 prostate, in the assay with HOP-62 NSCLC, with HOP-92 NSCLC and in the assay on HT29 colon was above 100 µM in each case. Moreover, the TGI in the assay with K-562 leukemia was above 70.4 µM; in the assay on M14 melanoma it was above 100 µM; with OVCAR-5 ovarian, above 100 µM; in the assay with RXF 393 renal, above 100 µM.

For the molecule `Cc1ccc2cccc3c2c1CC1(C3=O)S(=O)(=O)OCCOS1(=O)=O`, the TGI in the assay on 786-0 renal, with ACHN renal, in the assay on DU-145 prostate, in the assay on HOP-62 NSCLC, in the assay on HOP-92 NSCLC and in the assay with HT29 colon was above 100 µM throughout. In addition, the TGI in the assay on K-562 leukemia, in the assay on M14 melanoma, in the assay on OVCAR-5 ovarian and in the assay on RXF 393 renal was above 100 µM throughout.

On to `Cc1ccc(/C=N/NC2=NCCN2)s1`, for which the TGI with 786-0 renal, with ACHN renal, in the assay on DU-145 prostate, with HOP-62 NSCLC, in the assay on HOP-92 NSCLC and in the assay on HT29 colon was above 100 µM throughout. The TGI in the assay on K-562 leukemia, in the assay on M14 melanoma, with OVCAR-5 ovarian and with RXF 393 renal was above 100 µM in each case.

In the case of `COc1ccc(C(C#N)NCCCCCCNC(C#N)c2ccc(OC)cc2)cc1` (stereo not given), the TGI with 786-0 renal, in the assay with ACHN renal, in the assay on DU-145 prostate, with HOP-62 NSCLC, with HOP-92 NSCLC and with HT29 colon was above 100 µM throughout. The TGI in the assay on K-562 leukemia, in the assay with M14 melanoma, in the assay on OVCAR-5 ovarian and with RXF 393 renal was above 100 µM throughout.

Consider `Cc1ccc(Nc2nc(=O)[nH]c(=O)[nH]2)cc1N=[N+]=[N-]`, for which the TGI in the assay with 786-0 renal, in the assay with ACHN renal, with DU-145 prostate, in the assay with HOP-62 NSCLC, in the assay with HOP-92 NSCLC and in the assay on HT29 colon was above 100 µM each time. The TGI in the assay on K-562 leukemia, in the assay on M14 melanoma, in the assay with OVCAR-5 ovarian and in the assay with RXF 393 renal was above 100 µM each time.

For `COC1(OC)C2(Cl)C(Cl)=C(Cl)C1(Cl)C1COCC12` (stereo not given), the TGI in the assay with 786-0 renal, in the assay on ACHN renal, with DU-145 prostate, with HOP-62 NSCLC, with HOP-92 NSCLC and in the assay on HT29 colon was above 100 µM each time. The TGI in the assay on K-562 leukemia, with M14 melanoma, in the assay on OVCAR-5 ovarian and with RXF 393 renal was above 100 µM throughout.

In the case of `COc1ccccc1N=N/C(=N/NC(=O)c1ccc(C)cc1)c1ccc(N(CCC#N)CCC#N)cc1OC`, the TGI was above 100 µM in the assay on 786-0 renal; 55.9 µM with ACHN renal; above 100 µM with DU-145 prostate; above 100 µM with HOP-62 NSCLC; 95.1 µM in the assay on HOP-92 NSCLC; 85.4 µM in the assay with HT29 colon. Moreover, the TGI with K-562 leukemia, in the assay with M14 melanoma, in the assay with OVCAR-5 ovarian and with RXF 393 renal was above 100 µM each time.

For the molecule `CCOP(=O)(OCC)/C(C#N)=C/c1cccn1N(C)C`, the TGI with 786-0 renal, in the assay on ACHN renal, in the assay with DU-145 prostate, in the assay with HOP-62 NSCLC, in the assay on HOP-92 NSCLC and in the assay on HT29 colon was above 100 µM throughout. In addition, the TGI with K-562 leukemia, with M14 melanoma, with OVCAR-5 ovarian and with RXF 393 renal was above 100 µM throughout.

As for `O=C(OCC1CCCN2CCCCC12)c1ccncc1` (stereo not given), the TGI with 786-0 renal, in the assay on ACHN renal, in the assay with DU-145 prostate, in the assay with HOP-62 NSCLC, with HOP-92 NSCLC and with HT29 colon was above 100 µM each time. The TGI with K-562 leukemia, in the assay with M14 melanoma, with OVCAR-5 ovarian and in the assay on RXF 393 renal was above 100 µM each time.

For the molecule `CCc1n[nH]c(=O)n1NC(=O)c1ccccc1C(=O)O`, the TGI with 786-0 renal, with ACHN renal, in the assay on DU-145 prostate, with HOP-62 NSCLC, in the assay with HOP-92 NSCLC and with HT29 colon was above 100 µM in each case. The TGI in the assay on K-562 leukemia, in the assay with M14 melanoma, with OVCAR-5 ovarian and with RXF 393 renal was above 100 µM in each case.

Turning to `COc1cc(C2SCC(=O)N2c2ccc(Cl)cc2)cc(I)c1O` (stereo not given), the TGI in the assay on 786-0 renal, in the assay on ACHN renal, in the assay with DU-145 prostate, in the assay on HOP-62 NSCLC, with HOP-92 NSCLC and in the assay with HT29 colon was above 100 µM throughout. Besides, the TGI in the assay on K-562 leukemia, with M14 melanoma, in the assay on OVCAR-5 ovarian and in the assay with RXF 393 renal was above 100 µM in each case.

On to `C/C(=N\O)c1cccc(Nc2nc3ccccc3c3occc23)c1`, for which the TGI came out at 26.7 µM in the assay with 786-0 renal; 22.8 µM in the assay with ACHN renal; 27.8 µM with DU-145 prostate; 32.8 µM in the assay on HOP-62 NSCLC; 20.2 µM with HOP-92 NSCLC; 15.6 µM in the assay on HT29 colon. The TGI is 70.5 µM with K-562 leukemia, 29.7 µM with M14 melanoma, 30.7 µM in the assay with OVCAR-5 ovarian and 21 µM in the assay with RXF 393 renal.

On to `CC(C)(C)OC(=O)NC(Cc1ccc(OCc2ccccc2)cn1)C(=O)N1CCSCC1` (stereo not given), for which the TGI in the assay on 786-0 renal, with ACHN renal, in the assay on DU-145 prostate, in the assay with HOP-62 NSCLC, in the assay with HOP-92 NSCLC and with HT29 colon was above 100 µM each time. Moreover, the TGI in the assay with K-562 leukemia was above 100 µM; in the assay on M14 melanoma, above 100 µM; with OVCAR-5 ovarian, above 100 µM; in the assay with RXF 393 renal, 88.5 µM.

With `O=C1OC[C@@H]2Cc3c([nH]c4ccccc34)[C@@H](c3cc(O)c(O)c(O)c3)N12`, the TGI was 56.1 µM in the assay with 786-0 renal; above 100 µM in the assay with ACHN renal; above 100 µM with DU-145 prostate; 67.8 µM in the assay on HOP-62 NSCLC; above 100 µM with HOP-92 NSCLC; above 100 µM in the assay with HT29 colon. Besides, the TGI with K-562 leukemia stood at 58.7 µM; with M14 melanoma it was 36.7 µM; in the assay on OVCAR-5 ovarian, 46.2 µM; with RXF 393 renal it was 45.6 µM.

(Values after PubChem BioAssay (NCI).)
